Test results from publication PMC9330635, “Halogenated Pyrrolopyrimidines with Low MIC on Staphylococcus aureus and Synergistic Effects with an Antimicrobial Peptide” (Antibiotics, 2022).
≈ marks a conversion by molar mass, not a printed value. Read-outs that look alike come from different tables or passages of the source.

How the values were obtained:
human EGFR = target: T1, human EGFR (Homo sapiens, UniProt P00533); assay: Enzymatic EGFR (ErbB1) inhibition, Z'-LYTE; format: biochemical; conditions: 100 nM compound, ATP equal to KM
T1 construct: purchased Invitrogen (ThermoFisher), assay service
Procedure: The compounds were supplied in a 10 mM DMSO solution, and enzymatic EGFR (ErbB1) inhibition potency was determined by Invitrogen (ThermoFisher) using their Z’-LYTE® assay technology. The compounds were tested for their inhibitory activity at 100 nM in duplicates. The IC50 values that were reported for 1 and 5 are based on the average of 2 titration curves (20 data points), and were calculated from activity data with a four-parameter logistic model using SigmaPlot (Windows Version 12.0 from Systat Software, Inc., Palo Alto, CA, USA). Unless stated otherwise, the ATP concentration that was used was equal to apparent KM.

S. aureus (ATCC29213) = assay: MIC by broth microdilution, S. aureus; format: cell-based, Staphylococcus aureus; conditions: for Activity towards S. aureus (in words): culture, MIC assay; for MIC: Staphylococcus aureus
Procedure: (§1) In this study, we have, therefore, altered our strategy and used minimal inhibitory concentration assays to identify and improve antibacterial agents. A total of 10 pyrrolopyrimidines with variation of the 4-amino group were assayed for their MIC in E. coli (MG1655) and S. aureus (ATCC29213) using the broth microdilution method. Subsequently, the compounds were also counter-screened for their inhibition of human EGFR.
(§2) The MIC of compound 1–21 towards Escherichia coli (MG1655) and Staphylococcus aureus (ATCC29213) was determined following the standards that were recommended by the Clinical and Laboratory Standards Institute (CLSI) for the broth microdilution method. Briefly, the bacterial suspensions were adjusted to 0.5 McFarland standard (~1 × 10^8 colony forming units (CFU)/mL) and diluted 1:200 in Cation-Adjusted Mueller-Hinton Broth (CAMHB, […], […]). The suspension was subsequently added to polypropylene microtiter plates (100 µL/well, ~5 × 10^4 CFU/well) that were already prepared with different concentrations of the various halogenated fused pyrimidines (11 µL/well, two-fold serial dilutions). The plates were incubated at 37 °C overnight before inspection for visible growth and determination of the MIC values.

E. coli (MG1655) = assay: MIC by broth microdilution, E. coli; format: cell-based, Escherichia coli; conditions: E. coli MG1655, broth microdilution; for MIC: Escherichia coli
Procedure: as §1, §2

S. aureus = assay: MIC towards S. aureus in combination with the peptide betatide; format: cell-based, Staphylococcus aureus; conditions: betatide 8 mg/L (half its MIC)
Procedure: The concentration of betatide was 8 mg/L, which corresponds to half the MIC concentration.
as §2

[1] = S. aureus ATCC29213, broth microdilution, read-out: S. aureus MIC
[2] = ATCC29213, S. aureus, single agent (Table 3), read-out: Single Comp. MIC

## (R)-4-(4-((1-(4-Bromophenyl)ethyl)(methyl)amino)-7H-pyrrolo [2,3-d]pyrimidin-6-yl)phenol [Compound 10]
Human EGFR
  Human EGFR % inhibition: 16%
S. aureus (ATCC29213); S. aureus ATCC29213, broth microdilution
  S. aureus MIC: >128 µg/mL
S. aureus (ATCC29213)
  Activity towards S. aureus (in words): abolished all activity
E. coli (MG1655)
  E. coli MIC: >128 µg/mL

## COC(=O)c1ccc(-c2cc3c(N[C@H](C)c4ccc(Br)cc4)ncnc3[nH]2)cc1 [Compound 16, Methyl (R)-4-(4-((1-(4-bromophenyl)ethyl)amino)-7H-pyrrolo[2,3-d]pyrimidin-6-yl)be-nzoate]
Human EGFR
  inhibition at 0.1 µM: 42%
S. aureus (ATCC29213); [1]
  MIC: > 128 µg/mL
E. coli (MG1655)
  MIC: > 128 µg/mL

## C[C@@H](Nc1ncnc2[nH]c(-c3ccc(N)cc3)cc12)c1ccc(Br)cc1 [Compound 15, (R)-6-(4-Aminophenyl)-N-(1-(4-bromophenyl)ethyl)-7H-pyrrolo[2,3-d]pyrimidin-4-amine]
Human EGFR
  inhibition at 0.1 µM: 90%
S. aureus (ATCC29213); [1]
  MIC: > 128 µg/mL
E. coli (MG1655)
  MIC: > 128 µg/mL

## C[C@@H](Nc1ncnc2[nH]c(-c3ccc(O)cc3)cc12)c1ccc(Cl)cc1 [Compound 4, (R)-4-(4-((1-(4-Chlorophenyl)ethyl)amino)-7H-pyrrolo[2,3-d]pyrimidin-6-yl)phenol]
Human EGFR
  inhibition at 0.1 µM: 91%
S. aureus
  Combination with Betatide MIC: 4 µg/mL
S. aureus (ATCC29213); [2]
  MIC: 16 µg/mL (≈ 43.9 µM)
S. aureus (ATCC29213); [1]
  MIC: 16 µg/mL (≈ 43.9 µM)
other
  melting point: 216.6 °C (dec.)
E. coli (MG1655)
  MIC: > 128 µg/mL

## Cc1ccc([C@@H](C)Nc2ncnc3[nH]c(-c4ccc(O)cc4)cc23)cc1 [Compound 2, (R)-4-(4-((1-(p-Tolyl)ethyl)amino)-7H-pyrrolo[2,3-d]pyrimidin-6-yl)phenol]
Human EGFR
  inhibition at 0.1 µM: 91%
S. aureus
  Combination with Betatide MIC: 8 µg/mL
S. aureus (ATCC29213); [2]
  MIC: 16 µg/mL (≈ 46.5 µM)
S. aureus (ATCC29213); [1]
  MIC: 16 µg/mL (≈ 46.5 µM)
E. coli (MG1655)
  MIC: > 128 µg/mL

## C[C@@H](Nc1ncnc2[nH]c(-c3ccc(O)cc3)cc12)c1cccc(Br)c1 [Compound 7, (R)-4-(4-((1-(3-Bromophenyl)ethyl)amino)-7H-pyrrolo[2,3-d]pyrimidin-6-yl)phenol]
Human EGFR
  inhibition at 0.1 µM: 89%
S. aureus
  Combination with Betatide MIC: 4 µg/mL
S. aureus (ATCC29213); [2]
  MIC: 16 µg/mL (≈ 39.1 µM)
S. aureus (ATCC29213); [1]
  MIC: 16 µg/mL (≈ 39.1 µM)
E. coli (MG1655)
  MIC: > 128 µg/mL

## C[C@@H](Nc1ncnc2sc(-c3ccc(O)cc3)cc12)c1ccc(Br)cc1 (hydrate or solvate) [Compound 21, (R)-4-(4-((1-(4-Bromophenyl)ethyl)amino)thieno[2,3-d]pyrimidin-6-yl)phenol]
other
  melting point: 144.1 to 145.4 °C

## C[C@@H](Nc1ncnc2[nH]c(-c3ccc(O)cc3)cc12)c1ccc(F)cc1 [Compound 3]
Human EGFR
  inhibition at 0.1 µM: 92%
S. aureus (ATCC29213); [1]
  MIC: > 128 µg/mL
S. aureus (ATCC29213)
  Activity towards S. aureus (in words): inactive
E. coli (MG1655)
  MIC: > 128 µg/mL

## C[C@H](Nc1ncnc2[nH]c(-c3ccc(O)cc3)cc12)c1ccc(Br)cc1 [Compound 9, (S)-4-(4-((1-(4-Bromophenyl)ethyl)amino)-7H-pyrrolo[2,3-d]pyrimidin-6-yl)phenol]
S. aureus (ATCC29213); [1]
  MIC: > 128 µg/mL
S. aureus (ATCC29213)
  Activity towards S. aureus (in words): abolished all activity
E. coli (MG1655)
  MIC: > 128 µg/mL

## C[C@@H](Nc1ncnc2[nH]c(-c3ccc(F)cc3)cc12)c1ccc(Br)cc1 [Compound 13, (R)-N-(1-(4-Bromophenyl)ethyl)-6-(4-fluorophenyl)-7H-pyrrolo[2,3-d] pyrimidin-4-amine]
Human EGFR
  inhibition at 0.1 µM: 58%
S. aureus (ATCC29213); [1]
  MIC: > 128 µg/mL
E. coli (MG1655)
  MIC: > 128 µg/mL

## C[C@@H](Nc1ncnc2[nH]c(-c3ccccc3O)cc12)c1ccc(Br)cc1 [Compound 18, (R)-2-(4-((1-(4-Bromophenyl)ethyl)amino)-7H-pyrrolo[2,3-d]pyrimidin-6-yl)phenol]
Human EGFR
  inhibition at 0.1 µM: 80%
S. aureus (ATCC29213); [1]
  MIC: > 128 µg/mL
E. coli (MG1655)
  MIC: > 128 µg/mL

## C[C@@H](Nc1ncnc2[nH]c(-c3ccc(S(N)(=O)=O)cc3)cc12)c1ccc(Br)cc1 [Compound 17, (R)-4-(4-((1-(4-Bromophenyl)ethyl)amino)-7H-pyrrolo[2,3-d]pyrimidin-6-yl)benzene-sulfonamide]
Human EGFR
  inhibition at 0.1 µM: 85%
S. aureus (ATCC29213); [1]
  MIC: > 128 µg/mL
E. coli (MG1655)
  MIC: > 128 µg/mL

## C[C@@H](Nc1ncnc2[nH]c(-c3ccc(O)cc3)cc12)c1ccc(I)cc1 [Compound 6, (R)-4-(4-((1-(4-Iodophenyl)ethyl)amino)-7H-pyrrolo[2,3-d]pyrimidin-6-yl)phenol]
Human EGFR
  inhibition at 0.1 µM: 43%
S. aureus
  Combination with Betatide MIC: 2 µg/mL
S. aureus (ATCC29213); [2]
  MIC: 8 µg/mL (≈ 17.5 µM)
S. aureus (ATCC29213); [1]
  MIC: 8 µg/mL (≈ 17.5 µM)
E. coli (MG1655)
  MIC: > 128 µg/mL

## C[C@@H](Nc1ncnc2sc(-c3ccc(O)cc3)cc12)c1ccc(Br)cc1 [Compound 21, (R)-4-(4-((1-(4-Bromophenyl)ethyl)amino)thieno[2,3-d]pyrimidin-6-yl)phenol]
Human EGFR
  inhibition at 0.1 µM: 5%
S. aureus
  Combination with Betatide MIC: 4 µg/mL
S. aureus (ATCC29213); [2]
  MIC: 32 µg/mL (≈ 75.1 µM)
S. aureus (ATCC29213); [1]
  MIC: 32 µg/mL (≈ 75.1 µM)
E. coli (MG1655)
  MIC: > 128 µg/mL

## C[C@@H](Nc1ncnc2[nH]c(-c3ccc(O)cc3)cc12)c1ccc(I)cc1 (hydrate or solvate) [Compound 6, (R)-4-(4-((1-(4-Iodophenyl)ethyl)amino)-7H-pyrrolo[2,3-d]pyrimidin-6-yl)phenol]
other
  melting point: 254.9 to 256 °C (dec.)

## C[C@@H](Nc1ncnc2[nH]c(-c3ccc([N+](=O)[O-])cc3)cc12)c1ccc(Br)cc1 [Compound 14, (R)-N-(1-(4-Bromophenyl)ethyl)-6-(4-nitrophenyl)-7H-pyrrolo [2,3-d] pyrimidin-4-amine]
Human EGFR
  inhibition at 0.1 µM: 33%
S. aureus (ATCC29213); [1]
  MIC: > 128 µg/mL
E. coli (MG1655)
  MIC: > 128 µg/mL

## COc1ccc(-c2cc3c(N[C@H](C)c4ccc(Br)cc4)ncnc3s2)cc1 [Compound 20, (R)-N-(1-(4-Bromophenyl)ethyl)-6-(4-methoxyphenyl)thieno [2,3-d] pyrimidin-4-amine]
Human EGFR
  inhibition at 0.1 µM: 12%
S. aureus (ATCC29213); [1]
  MIC: > 128 µg/mL
S. aureus (ATCC29213)
  Activity towards S. aureus (in words): no activity
other
  melting point: 107.1 to 109.4 °C
E. coli (MG1655)
  MIC: > 128 µg/mL

## COc1ccc(-c2cc3c(N[C@@H](C)c4ccc(Br)cc4)ncnc3[nH]2)cc1 [Compound 11, (S)-N-(1-(4-Bromophenyl)ethyl)-6-(4-methoxyphenyl)-7H-pyrrolo[2,3-d]pyrimidin-4-amine]
S. aureus (ATCC29213); [1]
  MIC: > 128 µg/mL
E. coli (MG1655)
  MIC: > 128 µg/mL

## C[C@@H](Nc1ncnc2[nH]c(-c3cccc(O)c3)cc12)c1ccc(Br)cc1 [Compound 19, (R)-3-(4-((1-(4-Bromophenyl)ethyl)amino)-7H-pyrrolo[2,3-d]pyrimidin-6-yl)phenol]
Human EGFR
  inhibition at 0.1 µM: 73%
S. aureus
  Combination with Betatide MIC: 2 µg/mL
S. aureus (ATCC29213); [2]
  MIC: 8 µg/mL (≈ 19.5 µM)
S. aureus (ATCC29213); [1]
  MIC: 16 µg/mL (≈ 39.1 µM)
E. coli (MG1655)
  MIC: > 128 µg/mL

## C[C@@H](Nc1ncnc2[nH]c(-c3ccccc3)cc12)c1ccc(Br)cc1 [Compound 12, (R)-N-(1-(4-Bromophenyl)ethyl)-6-phenyl-7H-pyrrolo[2,3-d] pyrimidin-4-amine]
Human EGFR
  inhibition at 0.1 µM: 66%
S. aureus (ATCC29213); [1]
  MIC: > 128 µg/mL
E. coli (MG1655)
  MIC: > 128 µg/mL

## Oc1ccc(-c2cc3c(NCc4ccc(Br)cc4)ncnc3[nH]2)cc1 [Compound 8, 4-(4-((4-Bromobenzyl)amino)-7H-pyrrolo[2,3-d]pyrimidin-6-yl)phenol]
Human EGFR
  inhibition at 0.1 µM: 67%
S. aureus (ATCC29213); [1]
  MIC: > 128 µg/mL
S. aureus (ATCC29213)
  Activity towards S. aureus (in words): abolished all activity
E. coli (MG1655)
  MIC: > 128 µg/mL
